These results are taken from US20240034731A1, “AZA-QUINAZOLINE COMPOUNDS AND METHODS OF USE” (Iambic Therapeutics, Inc., priority 2022, published 2024).

For one assay, the system named is MCF-7 cells. As to the kind of experiment: Cell Growth Inhibition, MCF-7 (CellTiterGlo, 6 days). The assay is classed as cell-based. The note with it: Homo sapiens, MCF7, 144 h, MCF-7, 6-day treatment. In a few lines: (§1)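 IC50 from four-parameter, variable-slope fits of % growth inhibition, derived from CellTiterGlo 2.0 luminescence relative to control. Compounds, usually 10-10,000 nM in half-log steps, stayed 6 days at 37 °C, 5% CO2 with 500 MCF-7 or OVCAR-3 cells/well in 10% FBS RPMI.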

The subject of a further assay is OVCAR-3 cells. As to the kind of experiment: Cell Growth Inhibition, OVCAR-3 (CellTiterGlo, 6 days). It counts as cell-based. The note with it: Homo sapiens, 144 h, OVCAR-3, 6-day treatment. Put shortly:
as §1
On the technique in general: ATP-based viability assays read luminescence as a measure of living cells.

The target in the next assay is CDK2/Cyclin E1 (Homo sapiens (Human), UniProt P24941). The assay can be described thus: CDK2/Cyclin E1 Full length ADP-Glo Kinase Assay. It counts as biochemical. The note with it: 20 uM ATP, read-out: CDK2/ CyclinE1 IC50. Put shortly: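 ADP-Glo luminescence (ATP depletion, then ADP-to-light conversion) quantified kinase turnover after a 90 min room-temperature reaction started by ATP/substrate, following 30 min enzyme–inhibitor preincubation. Enzyme: full-length CDK2/cyclin E1; IC50 fitted with a four-parameter equation on fractional velocity.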

The next assay addresses CDK1/Cyclin B1 (Homo sapiens (Human), UniProt P06493). As to the kind of experiment: CDK1/Cyclin B1 ADP-Glo Kinase Assay. The note with it: ADP-Glo, 80 uM ATP; read-out: CDK1 Cyclin B1 IC50. The assay is classed as biochemical. In a few lines:
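ADP-Glo luminescent readout of ADP production, with IC50 fitted by a four-parameter equation to fractional velocity against inhibitor concentration. Reaction started with ATP-containing substrate after a 30-minute enzyme–inhibitor pre-incubation and stopped after 90 minutes, both at room temperature.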

The next assay deals with CDK4/Cyclin D1 (Homo sapiens (Human), UniProt P11802). The assay can be described thus: CDK4/Cyclin D1 CHEF Assay (AQT0258 peptide). It counts as biochemical. Conditions: 200 uM ATP, read-out: CDK4/ CyclinD1 AQT IC50. Put shortly:
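Sox-labelled peptide AQT0258 phosphorylation read as chelation-enhanced fluorescence (ex 360/em 485 nm) with Mg(II). Enzyme preincubated with inhibitor 30 min at 22°C, substrate added, 3 h at 22°C; IC50 from four-parameter fit of fractional velocity versus inhibitor concentration.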

A further assay deals with CDK6/Cyclin D3 (Homo sapiens (Human), UniProt Q00534). The assay can be described thus: CDK6/Cyclin D3 ADP-Glo Kinase Assay. The assay is classed as biochemical. The note with it: 100 uM ATP, read-out: CDK6/ CyclinD3 IC50. Put shortly: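 ADP-Glo luminescence measured ADP produced by CDK6/Cyclin D3 in a 90-min room-temperature reaction started with ATP-containing substrate, after 30-min enzyme–inhibitor pre-incubation. Fractional velocity was plotted against inhibitor concentration and fitted to a four-parameter IC50 model.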
CDK6/Cyclin D3, sequence (Q00534 whole entry): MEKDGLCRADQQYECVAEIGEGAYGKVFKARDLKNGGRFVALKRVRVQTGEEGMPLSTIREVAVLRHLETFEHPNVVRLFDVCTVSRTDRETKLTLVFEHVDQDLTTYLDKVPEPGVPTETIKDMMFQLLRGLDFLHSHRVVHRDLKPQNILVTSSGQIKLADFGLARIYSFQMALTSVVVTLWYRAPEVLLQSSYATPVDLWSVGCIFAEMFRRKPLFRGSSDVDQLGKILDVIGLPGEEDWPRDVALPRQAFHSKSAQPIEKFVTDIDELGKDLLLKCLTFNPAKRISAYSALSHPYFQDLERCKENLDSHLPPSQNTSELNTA
CDK6/Cyclin D3, sequence (P30281 whole entry partner): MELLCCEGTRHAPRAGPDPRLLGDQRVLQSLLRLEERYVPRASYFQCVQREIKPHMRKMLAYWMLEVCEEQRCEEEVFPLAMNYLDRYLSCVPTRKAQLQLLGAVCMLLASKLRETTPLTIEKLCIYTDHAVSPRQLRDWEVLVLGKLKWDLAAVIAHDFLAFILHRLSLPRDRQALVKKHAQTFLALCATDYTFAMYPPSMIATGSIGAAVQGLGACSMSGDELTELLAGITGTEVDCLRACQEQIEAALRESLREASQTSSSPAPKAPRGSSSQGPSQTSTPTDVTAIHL
(In ADP-Glo the light output rises with the ADP produced.)

CDK1/Cyclin B1, sequence (P06493 whole entry): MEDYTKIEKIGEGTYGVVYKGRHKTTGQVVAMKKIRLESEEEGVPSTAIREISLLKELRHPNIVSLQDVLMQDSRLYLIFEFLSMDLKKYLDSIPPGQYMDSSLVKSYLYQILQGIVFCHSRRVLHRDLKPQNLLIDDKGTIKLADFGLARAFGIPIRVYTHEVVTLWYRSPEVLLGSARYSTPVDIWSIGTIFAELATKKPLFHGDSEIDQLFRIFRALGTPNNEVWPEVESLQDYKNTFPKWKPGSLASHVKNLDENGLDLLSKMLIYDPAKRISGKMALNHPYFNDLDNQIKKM
CDK1/Cyclin B1, sequence (P14635 whole entry partner): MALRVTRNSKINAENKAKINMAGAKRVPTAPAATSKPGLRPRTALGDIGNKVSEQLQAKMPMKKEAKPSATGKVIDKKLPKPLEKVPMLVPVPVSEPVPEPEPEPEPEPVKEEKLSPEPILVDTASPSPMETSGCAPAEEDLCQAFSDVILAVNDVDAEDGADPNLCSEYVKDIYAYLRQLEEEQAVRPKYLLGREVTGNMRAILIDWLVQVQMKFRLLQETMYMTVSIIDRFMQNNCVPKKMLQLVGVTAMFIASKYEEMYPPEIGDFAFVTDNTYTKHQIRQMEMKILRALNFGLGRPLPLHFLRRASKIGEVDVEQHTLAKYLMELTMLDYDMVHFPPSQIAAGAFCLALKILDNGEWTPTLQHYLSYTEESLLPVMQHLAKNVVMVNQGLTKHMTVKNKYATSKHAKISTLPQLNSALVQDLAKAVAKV
CDK4/Cyclin D1, sequence (P11802 whole entry): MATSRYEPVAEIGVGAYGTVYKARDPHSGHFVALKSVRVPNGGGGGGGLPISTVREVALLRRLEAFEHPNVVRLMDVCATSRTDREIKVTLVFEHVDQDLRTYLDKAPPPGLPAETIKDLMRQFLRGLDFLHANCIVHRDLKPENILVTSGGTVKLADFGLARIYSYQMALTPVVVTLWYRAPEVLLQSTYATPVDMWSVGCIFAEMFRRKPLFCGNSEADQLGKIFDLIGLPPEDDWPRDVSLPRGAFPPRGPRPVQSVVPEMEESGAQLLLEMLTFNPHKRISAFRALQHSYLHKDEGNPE
CDK4/Cyclin D1, sequence (P24385 whole entry partner): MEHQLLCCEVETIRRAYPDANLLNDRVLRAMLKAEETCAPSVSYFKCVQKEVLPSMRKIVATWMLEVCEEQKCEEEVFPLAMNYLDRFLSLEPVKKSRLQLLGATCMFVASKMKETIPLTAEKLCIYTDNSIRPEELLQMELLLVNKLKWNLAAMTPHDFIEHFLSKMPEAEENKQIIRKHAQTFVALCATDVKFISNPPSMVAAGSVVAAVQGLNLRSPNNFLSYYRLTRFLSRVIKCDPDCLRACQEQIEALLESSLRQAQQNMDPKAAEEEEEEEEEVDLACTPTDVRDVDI

As for `Cc1cc2cnc(Nc3cc4c(cc3F)CN(S(C)(=O)=O)C4)nc2c(N2CC3(CNC3)C2)n1` [Compound 37, N-(6-fluoro-2-(methylsulfonyl)isoindolin-5-yl)-6-methyl-8-(2,6-diazaspiro[3.3]heptan-2-yl)pyrido[3,4-d]pyrimidin-2-amine], the IC50 is above 2000 nM in the assay on MCF-7 cells; above 2000 nM with OVCAR-3 cells; 200 to 500 nM on CDK2/Cyclin E1; above 2000 nM on CDK1/Cyclin B1; above 2000 nM at CDK4/Cyclin D1; above 2000 nM on CDK6/Cyclin D3.
For the compound `Cc1cc2cnc(Nc3cnn(CC4(N(C)C)CC4)c3)nc2c(N2CCC(C#N)(C3CC3)C2)n1` (stereo not drawn) [Compound 38, 3-cyclopropyl-1-(2-((1-((1-(dimethylamino)cyclopropyl)methyl)-1H-pyrazol-4-yl)amino)-6-methylpyrido[3,4-d]pyrimidin-8-yl)pyrrolidine-3-carbonitrile], the IC50 is above 2000 nM in the assay on MCF-7 cells; 500 to 2000 nM with OVCAR-3 cells; below 200 nM on CDK2/Cyclin E1; above 2000 nM at CDK1/Cyclin B1; 500 to 2000 nM on CDK4/Cyclin D1; above 2000 nM at CDK6/Cyclin D3.
As for `Cc1cc2cnc(N[C@H]3CC[C@H](CN(C)C)CC3)nc2c(N2CCC3(C2)CC3(F)F)n1` (stereo partly drawn) [Compound 40, 8-(1,1-difluoro-5-azaspiro[2.4]heptan-5-yl)-N-((1r,4r)-4-((dimethylamino)methyl)cyclohexyl)-6-methylpyrido[3,4-d]pyrimidin-2-amine], the IC50 in the assay on MCF-7 cells was 500 to 2000 nM; in the assay with OVCAR-3 cells, 500 to 2000 nM; on CDK2/Cyclin E1 it was below 200 nM; at CDK1/Cyclin B1, above 2000 nM; at CDK4/Cyclin D1, below 200 nM; at CDK6/Cyclin D3, below 200 nM.
As for `Cc1cc2cnc(NC3CCN(S(C)(=O)=O)CC3)nc2c(N2CCC3(C2)CC3(F)F)n1` (stereo not drawn) [Compound 41, 8-(1,1-difluoro-5-azaspiro[2.4]heptan-5-yl)-6-methyl-N-(1-(methylsulfonyl)piperidin-4-yl)pyrido[3,4-d]pyrimidin-2-amine], the IC50 is above 2000 nM with MCF-7 cells; above 2000 nM in the assay with OVCAR-3 cells; below 200 nM on CDK2/Cyclin E1; below 200 nM on CDK1/Cyclin B1; below 200 nM at CDK4/Cyclin D1; below 200 nM on CDK6/Cyclin D3.
As to `Cc1cc2cnc(NC3CC4CC3CN4C)nc2c(N2CCC3(C2)CC3(F)F)n1` (stereo not drawn) [Compound 43, 8-(1,1-difluoro-5-azaspiro[2.4]heptan-5-yl)-6-methyl-N-(2-methyl-2-azabicyclo[2.2.1]heptan-5-yl)pyrido[3,4-d]pyrimidin-2-amine], the IC50 with MCF-7 cells was 500 to 2000 nM; in the assay with OVCAR-3 cells, 500 to 2000 nM; at CDK2/Cyclin E1, 500 to 2000 nM; on CDK1/Cyclin B1, above 2000 nM; at CDK4/Cyclin D1 it was below 200 nM; on CDK6/Cyclin D3 it was 200 to 500 nM.
For the compound `Cc1cc2cnc(Nc3ccc4c(c3)CN(C)C4)nc2c(N2CC3(C2)CN(C2CC2)C3)n1` [Compound 44, 8-(6-cyclopropyl-2,6-diazaspiro[3.3]heptan-2-yl)-6-methyl-N-(2-methylisoindolin-5-yl)pyrido[3,4-d]pyrimidin-2-amine], the IC50 was above 2000 nM in the assay on MCF-7 cells; above 2000 nM in the assay with OVCAR-3 cells; above 2000 nM on CDK2/Cyclin E1; above 2000 nM on CDK1/Cyclin B1; 200 to 500 nM on CDK4/Cyclin D1; 500 to 2000 nM on CDK6/Cyclin D3.
Consider `Cc1cc2cnc(N[C@H]3CC[C@@H](CN(C)C)CC3)nc2c(N2CCC3(C2)CC3(F)F)n1` (stereo partly drawn) [Compound 45, 8-(1,1-difluoro-5-azaspiro[2.4]heptan-5-yl)-N-((1s,4s)-4-((dimethylamino)methyl)cyclohexyl)-6-methylpyrido[3,4-d]pyrimidin-2-amine], for which the IC50 is above 2000 nM with MCF-7 cells; above 2000 nM with OVCAR-3 cells; above 2000 nM on CDK2/Cyclin E1; 1 nM at CDK1/Cyclin B1; below 200 nM on CDK4/Cyclin D1; 500 to 2000 nM on CDK6/Cyclin D3.
For `Cc1cc2cnc(Nc3ccc4c(c3)CN(C3CC3)C4)nc2c(N2CC3(CCNC3)C2)n1` [Compound 47, N-(2-cyclopropylisoindolin-5-yl)-6-methyl-8-(2,6-diazaspiro[3.4]octan-2-yl)pyrido[3,4-d]pyrimidin-2-amine], the IC50 is 500 to 2000 nM with MCF-7 cells; 500 to 2000 nM in the assay with OVCAR-3 cells; below 200 nM on CDK2/Cyclin E1; 500 to 2000 nM on CDK1/Cyclin B1; below 200 nM at CDK4/Cyclin D1; below 200 nM on CDK6/Cyclin D3.
`Cc1cc2cnc(NC3CCN(S(=O)(=O)C4CC4)CC3)nc2c(N2CC3(C2)CN(C2CC2)C3)n1` [Compound 48, 8-(6-cyclopropyl-2,6-diazaspiro[3.3]heptan-2-yl)-N-(1-(cyclopropylsulfonyl)piperidin-4-yl)-6-methylpyrido[3,4-d]pyrimidin-2-amine]: the IC50 is above 2000 nM with MCF-7 cells; above 2000 nM in the assay with OVCAR-3 cells; below 200 nM at CDK2/Cyclin E1; 500 to 2000 nM at CDK1/Cyclin B1; below 200 nM at CDK4/Cyclin D1; 200 to 500 nM on CDK6/Cyclin D3.
With `Cc1cc2cnc(NC3CCN(S(=O)(=O)C4CC4)CC3)nc2c(N2CC3(CCN(C)C3)C2)n1` [Compound 49, N-(1-(cyclopropylsulfonyl)piperidin-4-yl)-6-methyl-8-(6-methyl-2,6-diazaspiro[3.4]octan-2-yl)pyrido[3,4-d]pyrimidin-2-amine], the IC50 with MCF-7 cells was 500 to 2000 nM; in the assay on OVCAR-3 cells it was 500 to 2000 nM; at CDK2/Cyclin E1 it was below 200 nM; on CDK1/Cyclin B1, 500 to 2000 nM; on CDK4/Cyclin D1 it was below 200 nM; on CDK6/Cyclin D3, 200 to 500 nM.
Take `FC(F)c1cc2cnc(Nc3ccc4c(c3)CN(C3CC3)C4)nc2c(N2CC3(CCNC3)C2)n1` [Compound 50, N-(2-cyclopropylisoindolin-5-yl)-6-(difluoromethyl)-8-(2,6-diazaspiro[3.4]octan-2-yl)pyrido[3,4-d]pyrimidin-2-amine]: the IC50 in the assay on MCF-7 cells was 500 to 2000 nM; in the assay with OVCAR-3 cells, 500 to 2000 nM; on CDK2/Cyclin E1 it was below 200 nM; at CDK1/Cyclin B1, 500 to 2000 nM; at CDK4/Cyclin D1 it was below 200 nM; on CDK6/Cyclin D3 it was below 200 nM.
Consider `Cc1cc2cnc(NC3CCN(S(C)(=O)=O)CC3)nc2c(N2CCC3(CCC3(F)F)C2)n1` (stereo not drawn) [Compound 52, 8-(1,1-difluoro-6-azaspiro[3.4]octan-6-yl)-6-methyl-N-(1-(methylsulfonyl)piperidin-4-yl)pyrido[3,4-d]pyrimidin-2-amine], for which the IC50 was above 2000 nM with MCF-7 cells; 500 to 2000 nM with OVCAR-3 cells; below 200 nM at CDK2/Cyclin E1; below 200 nM at CDK1/Cyclin B1; below 200 nM at CDK4/Cyclin D1; below 200 nM on CDK6/Cyclin D3.
On to `Cc1cc2cnc(NC3CCN(S(C)(=O)=O)CC3)nc2c(N2CCC3(C2)CC(F)(F)C3)n1` [Compound 53, 8-(2,2-difluoro-6-azaspiro[3.4]octan-6-yl)-6-methyl-N-(1-(methylsulfonyl)piperidin-4-yl)pyrido[3,4-d]pyrimidin-2-amine], for which the IC50 is above 2000 nM with MCF-7 cells; above 2000 nM in the assay with OVCAR-3 cells; below 200 nM at CDK2/Cyclin E1; above 2000 nM on CDK1/Cyclin B1; below 200 nM at CDK4/Cyclin D1; below 200 nM on CDK6/Cyclin D3.
Turning to `Cc1cc2cnc(NC3CCN(S(C)(=O)=O)CC3)nc2c(N2CCC3(CC3)C2)n1` [Compound 54, 6-methyl-N-(1-(methylsulfonyl)piperidin-4-yl)-8-(5-azaspiro[2.4]heptan-5-yl)pyrido[3,4-d]pyrimidin-2-amine], the IC50 in the assay on MCF-7 cells is above 2000 nM; in the assay with OVCAR-3 cells, 500 to 2000 nM; on CDK2/Cyclin E1, below 200 nM; at CDK1/Cyclin B1, below 200 nM; at CDK4/Cyclin D1 it was below 200 nM; at CDK6/Cyclin D3 it was below 200 nM.
